# Assay results as given in patent EP1170007A1, “REMEDIES” (Takara Shuzo Co, Ltd., priority 1999, dated 2000).
# Legend:
# mouse = assay: Single oral dose toxicity in mouse; type: in vivo
# [1] = test system: nerve growth factor production by L-M cells; assay: Enhancement of nerve growth factor production in L-M cells (enzyme immunoassay); type: cell-based, Rat
# Procedure: Rat fibroblast L-M cells (ATCC CCL-1.2) were suspended in a M199 medium (Gibco) containing 0.5% Bacto Peptone (Gibco) at a concentration of 1.0 x 10^5 cells/ml. 1 ml of the suspension was inoculated into each well of a 24-well plate. The cells were cultured aseptically. After culturing for 2 days, the medium was removed and substituted with a M199 medium containing 0.5% bovine serum albumin (Sigma). Then, cyclopentenone (final concentration of 1 to 25 µM), 4HCP (Aldrich) (final concentration of 12.5µM) or dipropionylcyclopentenone (final concentration of 3.1 to 9.4 µM) was added thereto. […]
# After completion of the incubation, the concentration of nerve growth factor in the culture was measured by enzyme immunoassay (NGF Emax Immuno Assay System: Promega). […]
# [2] = test system: human insulin-like growth factor-1 (h-IGF-1) production in Hs68 cells; assay: Enhancement of h-IGF-1 production in Hs68 cells (ELISA); type: cell-based
# Procedure: (1) Human newborn foreskin […] Hs68 cells (ATCC CRL-1635) were cultured in a D-MEM medium (Bio Whittaker) containing 10% fetal calf serum (FBS; Gibco BRL) in the presence of 5% CO2 at 37°C to saturation in a culture vessel. Then, the cells were suspended in the medium at a concentration of 3 x 10^5/ml using a trypsin-EDTA solution (Bio Whittaker). 200 µl of the suspension was dispensed into each well of a 96-well microtiter plate. When the cells were almost saturated in the culture vessel after culturing for 5 days, the medium was discarded and a medium containing 4HCP at a concentration of 40, 100 or 200 µM was added thereto. The culture supernatant was recovered at intervals of 24 hours for up to 96 hours. The effect of 4HCP on enhancement of human insulin-like growth factor-1 (h-IGF-1) production in Hs68 cells was determined using ELISA-Kit for h-IGF-1 (Diagnostic System Labo).
# (2) Hs68 cells were cultured in a D-MEM medium containing 10% fetal calf serum in the presence of 5% CO2 at 37°C to saturation in a culture vessel. Then, the cells were suspended in the medium at a concentration of 3 x 10^5/ml using a trypsin-EDTA solution. 200 µl of the suspension was dispensed into each well of a 96-well microtiter plate. When the cells were almost saturated in the culture vessel after culturing for 5 to 7 days, the medium was discarded and the medium containing cyclopentenone or GM at a concentration of 0, 2.5, 5, 10 or 20 µM was added thereto. The culture supernatant was recovered at 1, 3, 6, 12, 24 or 48 hours. The effect of cyclopentenone or GM on the production (enhancement of expression) of h-IGF-1 in Hs68 cells was determined using ELISA-Kit for h-IGF-1. […] The amount of h-IGF-1 produced 6 hours after the addition was about twice the amount for the control with no addition. […] (3) Hs68 cells were cultured in a D-MEM medium containing 10% fetal calf serum in the presence of 5% CO2 at 37°C to saturation in a culture vessel. Then, the cells were suspended in the medium at a concentration of 3 x 10^5/ml using a trypsin-EDTA solution. 200 µl of the suspension was dispensed into each well of a 96-well microtiter plate. When the cells were almost saturated in the culture vessel after culturing for 5 to 7 days, the medium was discarded and the medium containing 4HCP, a compound of formula (XVIII) (4HCP-GSH) or glutathione (GSH) at a concentration of 0, 25, 50, 100 or 200 µM was added thereto. The culture supernatant was recovered at 1, 3, 6, 12, 24 or 48 hours. The effect on the production (enhancement of expression) of h-IGF-1 in Hs68 cells was determined using ELISA-Kit for h-IGF-1. As a result, when 4HCP was added at a concentration of 25 to 200 µM, h-IGF production in Hs68 cells became maximal at 1 hour and decreased thereafter as the time went by. […] Significant enhancement of h-IGF-1 production was observed when cultured for 10 to 30 minutes. […]
# [3] = single dose orally administered to a mouse at 100 mg/kg
# [4] = Example 3-(3): 100 µM, cultivation time 1 hour, control 7.2
# [5] = Example 3-(3): 100 µM, cultivation time 3 hour, control 8.9
# [6] = Example 3-(3): 100 µM, cultivation time 6 hour, control 6.3
# [7] = Example 3-(3): 100 µM, cultivation time 12 hour, control 0
# [8] = Example 3-(3): 100 µM, cultivation time 24 hour, control 0
# [9] = Example 3-(3): 100 µM, cultivation time 48 hour, control 0
# [10] = Example 3-(3): 200 µM, cultivation time 1 hour, control 7.2
# [11] = Example 3-(3): 200 µM, cultivation time 3 hour, control 8.9
# [12] = Example 3-(3): 200 µM, cultivation time 6 hour, control 6.3
# [13] = Example 3-(3): 200 µM, cultivation time 12 hour, control 0
# [14] = Example 3-(3): 200 µM, cultivation time 24 hour, control 0
# [15] = Example 3-(3): 200 µM, cultivation time 48 hour, control 0
molecule,measurement,setting,value
O=C(OC1C=CC(=O)C1OC(=O)c1ccccc1)c1ccccc1 (stereo not drawn),death after single oral dose,mouse; [3],no example of death was observed
"CC(C)(C)OC1C=CC(=O)C1OC(C)(C)C (stereo not drawn) [4,5-di-t-butylcyclopentenone ether]",death after single oral dose,"mouse; mouse, in vivo, po, 100 mg/kg",no example of death was observed
"O=C1C=CC(O)C1 (stereo not drawn) [4HCP, 4-hydroxy-2-cyclopenten-1-one]",death after single oral dose,"mouse; mouse, in vivo, po, 100 mg/kg",no example of death was observed
same,Nerve growth factor concentration,"[1]; 12.5 µM, 24 hours, 0 µM control 0.138 (Table 2)",0.327 ng/mL
same,production of nerve growth factor by L-M cells (result in words),[1]; 24 hours incubation,enhanced the production of nerve growth factor by L-M cells in a concentration-dependent manner
same,Activity of enhancing h-IGF-1 production,"[2]; Example 3-(1): 40 µM, cultivation time 24 hour, control 0",0 ng/mL
same,Activity of enhancing h-IGF-1 production,"[2]; Example 3-(1): 40 µM, cultivation time 48 hour, control 0",0 ng/mL
same,Activity of enhancing h-IGF-1 production,"[2]; Example 3-(1): 40 µM, cultivation time 72 hour, control 0",0 ng/mL
same,Activity of enhancing h-IGF-1 production,"[2]; Example 3-(1): 40 µM, cultivation time 96 hour, control 0",0 ng/mL
same,time at which the activity of enhancing h-IGF production in Hs68 cells became maximal,"[2]; Example 3-(1): 100 µM or more, sampled at 24, 48, 72, 96 hours",24 h
same,Activity of enhancing h-IGF-1 production,"[2]; Example 3-(1): 100 µM, cultivation time 24 hour, control 0",39.9 ng/mL
same,Activity of enhancing h-IGF-1 production,"[2]; Example 3-(1): 100 µM, cultivation time 48 hour, control 0",10.0 ng/mL
same,Activity of enhancing h-IGF-1 production,"[2]; Example 3-(1): 100 µM, cultivation time 72 hour, control 0",9.6 ng/mL
same,Activity of enhancing h-IGF-1 production,"[2]; Example 3-(1): 100 µM, cultivation time 96 hour, control 0",4.4 ng/mL
same,Activity of enhancing h-IGF-1 production,"[2]; Example 3-(1): 200 µM, cultivation time 24 hour, control 0",37.9 ng/mL
same,Activity of enhancing h-IGF-1 production,"[2]; Example 3-(1): 200 µM, cultivation time 48 hour, control 0",10.4 ng/mL
same,Activity of enhancing h-IGF-1 production,"[2]; Example 3-(1): 200 µM, cultivation time 72 hour, control 0",9.9 ng/mL
same,Activity of enhancing h-IGF-1 production,"[2]; Example 3-(1): 200 µM, cultivation time 96 hour, control 0",4.2 ng/mL
same,Activity of enhancing IGF-1 production,"[2]; Example 3-(3): 25 µM, cultivation time 1 hour, control 7.2",30.6 ng/mL
same,Activity of enhancing IGF-1 production,"[2]; Example 3-(3): 25 µM, cultivation time 3 hour, control 8.9",29.5 ng/mL
same,Activity of enhancing IGF-1 production,"[2]; Example 3-(3): 25 µM, cultivation time 6 hour, control 6.3",9.6 ng/mL
same,Activity of enhancing IGF-1 production,"[2]; Example 3-(3): 25 µM, cultivation time 12 hour, control 0",0 ng/mL
same,Activity of enhancing IGF-1 production,"[2]; Example 3-(3): 25 µM, cultivation time 24 hour, control 0",0 ng/mL
same,Activity of enhancing IGF-1 production,"[2]; Example 3-(3): 25 µM, cultivation time 48 hour, control 0",0 ng/mL
same,Activity of enhancing IGF-1 production,"[2]; Example 3-(3): 50 µM, cultivation time 1 hour, control 7.2",49.5 ng/mL
same,Activity of enhancing IGF-1 production,"[2]; Example 3-(3): 50 µM, cultivation time 3 hour, control 8.9",42.1 ng/mL
same,Activity of enhancing IGF-1 production,"[2]; Example 3-(3): 50 µM, cultivation time 6 hour, control 6.3",27.8 ng/mL
same,Activity of enhancing IGF-1 production,"[2]; Example 3-(3): 50 µM, cultivation time 12 hour, control 0",0 ng/mL
same,Activity of enhancing IGF-1 production,"[2]; Example 3-(3): 50 µM, cultivation time 24 hour, control 0",0 ng/mL
same,Activity of enhancing IGF-1 production,"[2]; Example 3-(3): 50 µM, cultivation time 48 hour, control 0",0 ng/mL
same,expression of h-IGF-1 (result in words),"[2]; Example 3-(3): 100 µM or more, at 48 hours",expression of h-IGF-1 was observed
same,Activity of enhancing IGF-1 production,[2]; [4],52.8 ng/mL
same,Activity of enhancing IGF-1 production,[2]; [5],47.2 ng/mL
same,Activity of enhancing IGF-1 production,[2]; [6],31 ng/mL
same,Activity of enhancing IGF-1 production,[2]; [7],22.1 ng/mL
same,Activity of enhancing IGF-1 production,[2]; [8],25.6 ng/mL
same,Activity of enhancing IGF-1 production,[2]; [9],32 ng/mL
same,Activity of enhancing IGF-1 production,[2]; [10],59.2 ng/mL
same,Activity of enhancing IGF-1 production,[2]; [11],51.7 ng/mL
same,Activity of enhancing IGF-1 production,[2]; [12],44.4 ng/mL
same,Activity of enhancing IGF-1 production,[2]; [13],42.1 ng/mL
same,Activity of enhancing IGF-1 production,[2]; [14],50.3 ng/mL
same,Activity of enhancing IGF-1 production,[2]; [15],50.2 ng/mL
same,time at which h-IGF production in Hs68 cells became maximal,"[2]; Example 3-(3): 25 to 200 µM, sampled at 1 to 48 hours",1 h
NC(CCC(=O)NC(CSC1CC(=O)CC1O)C(=O)NCC(=O)O)C(=O)O (stereo not drawn) [4HCP-GSH],Activity of enhancing IGF-1 production,[2]; [4],8.4 ng/mL
same,Activity of enhancing IGF-1 production,[2]; [5],12 ng/mL
same,Activity of enhancing IGF-1 production,[2]; [6],10.6 ng/mL
same,Activity of enhancing IGF-1 production,[2]; [7],6.1 ng/mL
same,Activity of enhancing IGF-1 production,[2]; [8],6.7 ng/mL
same,Activity of enhancing IGF-1 production,[2]; [9],1.4 ng/mL
same,Activity of enhancing IGF-1 production,[2]; [10],33.3 ng/mL
same,Activity of enhancing IGF-1 production,[2]; [11],37.9 ng/mL
same,Activity of enhancing IGF-1 production,[2]; [12],24.7 ng/mL
same,Activity of enhancing IGF-1 production,[2]; [13],20.4 ng/mL
same,Activity of enhancing IGF-1 production,[2]; [14],20.9 ng/mL
same,Activity of enhancing IGF-1 production,[2]; [15],27.8 ng/mL
same,activity of enhancing h-IGF-1 (result in words),[2]; Example 3-(3): 100 to 200 µM,exhibit an activity of enhancing h-IGF-1 in a concentration-dependent manner
CCCCCC(=O)OC1C=CC(=O)C1OC(=O)CCCCC (stereo not drawn) [dihexanoylcyclopentenone],death after single oral dose,mouse; [3],no example of death was observed
"N[C@@H](CCC(=O)N[C@@H](CS)C(=O)NCC(=O)O)C(=O)O [glutathione, reference compound]",activity of enhancing h-IGF-1 (result in words),"[2]; Example 3-(3): glutathione alone added, 25 to 200 µM",no significant activity of enhancing h-IGF-1 was observed
di-2-hexenoylcyclopentenone,death after single oral dose,mouse; [3],no example of death was observed
